A word on the MIC: it is the smallest concentration in the dilution series that meets the test's criterion for growth inhibition. Higher therefore signals a need for much substance. What is called IC80 is the point of the concentration-response curve where the effect stands at 80%. Low readings indicate an effect from little substance, high ones a need for much substance.

The structures appear in SMILES notation. Converted amounts (≈) assume the structure as drawn.

This note sets out measurements from ChEMBL document CHEMBL1137070, “Novel galbonolide derivatives as IPC synthase inhibitors: design, synthesis and in vitro antifungal activities” (2004).

Common to all, as to format: functional
The subject of assay [1] is Aspergillus fumigatus. Nature of the assay: In vitro antifungal activity against Aspergillus fumigatus TIMM1776; activity expressed as minimum inhibitory concentration.
Assay [2] relates to Candida albicans. Nature of the assay: In vitro antifungal activity against Candida albicans ATCC 90028; activity expressed as minimum inhibitory concentration.
Assay [3] concerns Candida albicans. Nature of the assay: In vitro antifungal activity against Candida albicans ATCC 90028.
Assay [4] relates to Cryptococcus neoformans. Nature of the assay: In vitro antifungal activity against Cryptococcus neoformans ATCC 9011; activity expressed as minimum inhibitory concentration.
In assay [5] the test system is Cryptococcus neoformans. Nature of the assay: In vitro antifungal activity against Cryptococcus neoformans ATCC 9011.
Assay [6] deals with Saccharomyces cerevisiae. Nature of the assay: In vitro antifungal activity against Saccharomyces cerevisiae Y9; activity expressed as minimum inhibitory concentration.
The subject of assay [7] is Aspergillus fumigatus. Nature of the assay: In vitro antifungal activity against Aspergillus fumigatus TIMM1776.
In assay [8] the test system is Saccharomyces cerevisiae. Nature of the assay: In vitro antifungal activity against Saccharomyces cerevisiae Y9.

For the compound `C=C1/C=C(\C)[C@H](CC)OC(=O)[C@H](C)C(=O)[C@@](O)(CO)C/C(Cl)=C/[C@@H](C)C1`, the MIC is above 64 µg/mL in the assay on Aspergillus fumigatus [1], above 64 µg/mL against Candida albicans [2] and 16 µg/mL (≈ 41.6 µM) in the assay on Cryptococcus neoformans [4]. Further, the IC80 with Candida albicans [3] is 64 µg/mL (≈ 166 µM); in the assay on Cryptococcus neoformans [5] it was 0.15 µg/mL (≈ 0.39 µM).
For `C=C1/C=C(\C)[C@H](CC)OC(=O)[C@@H](C)C(=O)[C@@](O)(CO)C/C(OC)=C/[C@@H](C)C1`, the MIC against Aspergillus fumigatus [1], in the assay with Candida albicans [2], against Cryptococcus neoformans [4] and against Saccharomyces cerevisiae [6] was above 64 µg/mL in each case.
For `OC(Cn1cncn1)(Cn1cncn1)c1ccc(F)cc1F` [FLUCONAZOLE], the IC80 in the assay on Aspergillus fumigatus [7] was above 64 µg/mL; with Candida albicans [3], 0.5 µg/mL (≈ 1.63 µM); with Cryptococcus neoformans [5] it was 8 µg/mL (≈ 26.1 µM); with Saccharomyces cerevisiae [8] it was 8 µg/mL (≈ 26.1 µM).
For `C=C1/C=C(\C)[C@H](CC)OC(=O)[C@H](C)C(=O)[C@@](O)(CO)C/C(C)=C/[C@@H](C)C1`, the MIC in the assay on Aspergillus fumigatus [1], in the assay with Candida albicans [2], against Cryptococcus neoformans [4] and against Saccharomyces cerevisiae [6] was above 64 µg/mL in each case. This compound yielded an IC80 with Cryptococcus neoformans [5] of 32 µg/mL (≈ 87.8 µM).
For the compound `C[C@@H]1[C@H](O)[C@@H](C)/C=C/C=C/C=C/C=C/C=C/C=C/C=C/[C@H](O[C@@H]2O[C@H](C)[C@@H](O)[C@H](N)[C@@H]2O)C[C@@H]2O[C@](O)(C[C@@H](O)C[C@@H](O)[C@H](O)CC[C@@H](O)C[C@@H](O)CC(=O)O[C@H]1C)C[C@H](O)[C@H]2C(=O)O` [AMPHOTERICIN B], the MIC against Aspergillus fumigatus [1] is 1 µg/mL (≈ 1.08 µM); with Candida albicans [2], 0.25 µg/mL (≈ 0.271 µM); with Cryptococcus neoformans [4], 0.25 µg/mL (≈ 0.271 µM); in the assay on Saccharomyces cerevisiae [6] it was 0.25 µg/mL (≈ 0.271 µM).
Regarding `C=C1/C=C(\C)[C@H](CC)OC(=O)[C@H](C)C(=O)[C@@](O)(CO)C/C(OC)=C/[C@@H](C)C1`, the minimal inhibitory concentration (MIC) is above 64 µg/mL against Aspergillus fumigatus [1], 4 µg/mL (≈ 10.5 µM) in the assay with Candida albicans [2], 0.063 µg/mL (≈ 0.166 µM) with Cryptococcus neoformans [4] and 1 µg/mL (≈ 2.63 µM) in the assay with Saccharomyces cerevisiae [6]. The IC80 in the assay on Candida albicans [3] was 1 µg/mL (≈ 2.63 µM); in the assay with Cryptococcus neoformans [5], below 0.031 µg/mL; with Saccharomyces cerevisiae [8], 0.5 µg/mL (≈ 1.31 µM).
For `C=C1/C=C(\C)[C@H](CC)OC(=O)[C@H](C)C(=O)[C@@](O)(CO)C/C(SC)=C/[C@@H](C)C1`, the MIC in the assay with Aspergillus fumigatus [1] was above 64 µg/mL; with Candida albicans [2], 64 µg/mL (≈ 161 µM); with Cryptococcus neoformans [4], 0.5 µg/mL (≈ 1.26 µM); against Saccharomyces cerevisiae [6], 64 µg/mL (≈ 161 µM). The 80% effect concentration (IC80) was 16 µg/mL (≈ 40.3 µM) with Candida albicans [3], 0.063 µg/mL (≈ 0.159 µM) in the assay on Cryptococcus neoformans [5] and 32 µg/mL (≈ 80.7 µM) with Saccharomyces cerevisiae [8].
With `C=C1/C=C(\C)[C@H](CC)OC(=O)[C@H](C)C(=O)[C@@](O)(CO)C/C=C/[C@@H](C)C1`, the MIC against Aspergillus fumigatus [1], in the assay with Candida albicans [2] and in the assay with Cryptococcus neoformans [4] was above 64 µg/mL each time.
Take `C=C1/C=C(\C)[C@H](CC)OC(=O)[C@H](C)C(=O)[C@@](O)(CO)C/C(OCC(F)(F)F)=C/[C@@H](C)C1`: the MIC against Aspergillus fumigatus [1] was 64 µg/mL (≈ 143 µM); in the assay with Candida albicans [2] it was above 64 µg/mL; in the assay on Cryptococcus neoformans [4], 32 µg/mL (≈ 71.4 µM).
`C=C1/C=C(\C)[C@H](CC)OC(=O)[C@H](C)C(=O)[C@@](O)(CO)[C@@H](OC)/C=C/[C@@H](C)C1`: the MIC against Aspergillus fumigatus [1], with Candida albicans [2] and in the assay on Cryptococcus neoformans [4] was above 64 µg/mL each time.
Regarding `C=C1/C=C(\C)[C@H](CC)OC(=O)[C@H](C)C(=O)[C@@](O)(CO)[C@H](OC)/C=C/[C@@H](C)C1`, the MIC in the assay with Aspergillus fumigatus [1], against Candida albicans [2] and with Cryptococcus neoformans [4] was above 64 µg/mL throughout.
